Data: ChEMBL document CHEMBL4004798, “Phytochemical Investigations of Three Rhodocodon (Hyacinthaceae Sensu APG II) Species” (2017)

Experiments:
[1] = target: T1, Prostaglandin G/H synthase 2 (Homo sapiens) (UniProt P35354); experiment: Inhibition of COX2 in HCA-7 cells assessed as reduction in PGE2 release at 12 uM after 48 hrs by ELISA relative to control; assay type: cell-based
T1 sequence (whole entry): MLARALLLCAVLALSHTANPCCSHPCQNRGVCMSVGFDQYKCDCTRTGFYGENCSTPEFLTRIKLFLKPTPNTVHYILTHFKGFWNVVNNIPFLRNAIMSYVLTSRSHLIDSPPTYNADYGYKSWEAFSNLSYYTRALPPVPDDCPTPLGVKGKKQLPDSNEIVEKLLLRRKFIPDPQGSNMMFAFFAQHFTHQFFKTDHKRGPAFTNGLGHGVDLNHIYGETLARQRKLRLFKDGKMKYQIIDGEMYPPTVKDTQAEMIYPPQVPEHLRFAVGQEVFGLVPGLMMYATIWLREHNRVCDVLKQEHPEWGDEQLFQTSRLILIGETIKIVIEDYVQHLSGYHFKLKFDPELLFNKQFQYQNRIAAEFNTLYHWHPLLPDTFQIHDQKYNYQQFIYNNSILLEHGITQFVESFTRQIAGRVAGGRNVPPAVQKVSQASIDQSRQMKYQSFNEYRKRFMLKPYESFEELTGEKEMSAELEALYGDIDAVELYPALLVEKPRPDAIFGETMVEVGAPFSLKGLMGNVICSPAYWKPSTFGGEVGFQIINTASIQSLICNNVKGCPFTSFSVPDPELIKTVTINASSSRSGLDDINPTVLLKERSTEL

[2] = Inhibition of COX2 expression in HCA-7 cells at 12 uM after 48 hrs by Western blot method relative to control; assay type: functional; settings: Homo sapiens, HCA-7, 48 h
[3] = Inhibition of COX2 expression in HCA-7 cells at 1 mM after 48 hrs by Western blot method relative to control; assay type: functional; settings: Homo sapiens, HCA-7, 48 h

| SMILES | inhibition [1] | inhibition at 12 µM [2] | inhibition at 1000 µM [3] |
| --- | --- | --- | --- |
| COc1ccc(/C=C2\COc3cc(O)cc(O)c3C2=O)cc1OC(C)=O | 11% | 8% | – |
| CC(=O)Oc1ccccc1C(=O)O [ASPIRIN] | – | – | 12% |
| COc1ccc(/C=C2\COc3cc(O)c(O)c(O)c3C2=O)cc1O | 20% | 10% | – |
